{
  "source": "BindingDB's records for patent US20250136619",
  "about": "(Halda Therapeutics OPCO, 2025)",
  "target": "Tyrosine-protein kinase BTK (Homo sapiens, UniProt Q06187)",
  "sequence (Q06187 whole entry)": "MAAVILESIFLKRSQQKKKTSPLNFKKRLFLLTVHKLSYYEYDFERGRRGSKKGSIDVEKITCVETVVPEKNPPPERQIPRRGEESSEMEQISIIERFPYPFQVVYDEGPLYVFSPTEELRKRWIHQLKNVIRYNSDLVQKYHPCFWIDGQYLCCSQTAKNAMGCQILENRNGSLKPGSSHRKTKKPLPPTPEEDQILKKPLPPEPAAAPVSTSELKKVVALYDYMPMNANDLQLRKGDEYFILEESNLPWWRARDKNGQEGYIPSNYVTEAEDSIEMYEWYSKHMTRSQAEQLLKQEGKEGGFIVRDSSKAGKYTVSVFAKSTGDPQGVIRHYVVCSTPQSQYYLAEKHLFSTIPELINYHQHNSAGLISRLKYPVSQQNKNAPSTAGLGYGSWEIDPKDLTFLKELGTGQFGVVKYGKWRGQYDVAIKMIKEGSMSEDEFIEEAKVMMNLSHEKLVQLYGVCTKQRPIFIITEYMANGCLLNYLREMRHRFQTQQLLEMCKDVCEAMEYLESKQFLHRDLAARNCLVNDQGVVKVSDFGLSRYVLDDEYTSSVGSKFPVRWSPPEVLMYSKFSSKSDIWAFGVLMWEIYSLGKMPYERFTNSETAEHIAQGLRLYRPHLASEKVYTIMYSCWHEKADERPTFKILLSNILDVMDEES",
  "test": "Assay for Binding Affinity to BTK",
  "protocol": "Compounds were tested using a KdELECT assay. Kinase-tagged T7 phage strains were prepared in an E. coli host derived from the BL21 strain. E. coli were grown to log-phase and infected with T7 phage and incubated with shaking at 32° C. until lysis. The lysates were centrifuged and filtered to remove cell debris. The remaining kinases were produced in HEK-293 cells and subsequently tagged with DNA for qPCR detection. Streptavidin-coated magnetic beads were treated with biotinylated small molecule ligands for 30 minutes at room temperature to generate affinity resins for kinase assays. The liganded beads were blocked with excess biotin and washed with blocking buffer (SeaBlock (Pierce), 1% BSA, 0.05% Tween 20, 1 mM DTT) to remove unbound ligand and to reduce non-specific binding. Binding reactions were assembled by combining kinases, liganded affinity beads, and test compounds in 1× binding buffer (20% SeaBlock, 0.17×PBS, 0.05% Tween 20, 6 mM DTT). Test compounds were prepared as 111X stocks in 100% DMSO. Kd values were determined using an 11-point 3-fold compound dilution series with three DMSO control points. All compounds for Kd measurements are distributed by acoustic transfer (non-contact dispensing) in 100% DMSO. The compounds were then diluted directly into the assays such that the final concentration of DMSO was 0.9%. […] The kinase concentration in the eluates was measured by qPCR.",
  "data": [
    {"smiles": "CCc1cnn2c(NCc3ccc(OCCOCCOCCOCCOCCOCCOCCOCCOCCOC/C=C/C(=O)N4CCC[C@@H](n5nc(-c6ccc(Oc7ccccc7)cc6)c6c(N)ncnc65)C4)nc3)cc(N3CCCC[C@H]3CCO)nc12", "note": "[US20250136619, Compound I-47]", "values": [
      {"measurement": "Kd", "result": "< 50", "unit": "nM"}
    ]}
  ]
}
